Assay results as given in patent US20030207791A1, “Materials and methods relating to the treatment of leukaemias” (priority 2000, published 2003).

Assays:
Format in all cases: cell-based
[1] = test system: CC-RAR expressing murine primary haemopoietic precursors; assay: RA relief of differentiation block in transduced murine primary haemopoietic precursors; conditions: RA 3 nM or 1 μM, block by CC-RAR
Text: (§1) FIG. 5. […] (C-D) Effects of RAR chimeric proteins on differentiation of murine hematopoietic progenitors. Lin-cells were transduced with the indicated retroviral vectors and then sorted by FACS on the basis of their GFP positivity. In the case of ΔCC-PML-RAR, GFP+ cells were sorted in GFP^high or GFP^low expressors.
(§2) Murine hematopoietic progenitors were purified from the bone marrow of 12 weeks old BALB-C mice using commercially available kits (StemCell Tecnology). Cells were selected on the basis of the absence of lineage differentiation markers (lin−). Purified cells were pre-stimulated for two days in medium containing IL-3 (20 ng/ml), IL-6 (20 ng/ml) and stem cell factor (SCF, 100 ng/ml) and then attached to Retronectin (Takara Shuzo)-coated multiwell plates. Cells were incubated for 48 hours with the filtered supernatant from ecotropic packaging cells (Phoenix) transiently transfected with the indicated retroviral constructs (Grignani et al., 1998).

[2] = test system: PML-RAR expressing murine primary haemopoietic precursors; assay: as above; conditions: RA 3 nM or 1 μM, block by PML-RAR
Text: as §1, §2

[3] = test system: murine hematopoietic progenitors (lin-); assay: In vitro differentiation of murine hematopoietic progenitor cells transduced with retroviral constructs; conditions: control cells, RA 3 nM or 1 μM; maximum; as described (Purton et al., 1999)
Method: FIG. 5. A heterologous oligomerization domain activates the transforming potential of RAR. (A-B) p53-RAR form oligomers. (A) Nuclear extracts from COS-1 cells transfected with expression vectors for p53-RAR or RAR were incubated with tritiated RA (10 nM), fractionated and analysed as described in FIG. 3A. Note that the low MW peak of RA-binding capacity (coinciding with RAR) in p53-RAR cells derives from expression of wild type RAR, starting from its own ATG-conserved in the p53-RAR expression vector (see below)-. (B) Fractions from gel filtration of in vitro translated, ^35-S labelled p53-RAR were analysed by SDS-PAGE, followed by autoradiography. Note that two products are generated in the reaction: full-length p53-RAR, fractionating in oligomeric complexes, and RAR, starting from the internal ATG site of RAR and fractionating as a monomer. […] After sorting, cells were either plated in differentiation medium in the absence or in the presence of RA (3 nM or 1 μM) (C), or analysed by Western blot (D). […]
The capacity of p53-RAR to block differentiation was evaluated using primary hematopoietic precursors purified from murine bone marrow on the basis of the absence of surface differentiation antigens (lin-see methods). […] After 8-10 days, colonies were pooled and analysed for the expression of myeloid differentiation markers (Mac-1 and GR-1). […]

ΔCC-PML-RAR = assay: RA sensitivity of transcriptional repression, RARE-G5-TATA reporter; conditions: RA 1 nM-10 μM, repression by ΔCC-PML-RAR
Text: Light units were normalized to expression of a co-transfected β-galactosidase expression plasmid.

## CC1=C(/C=C/C(C)=C/C=C/C(C)=C/C(=O)O)C(C)(C)CCC1 [RA, retinoic acid]
[1]
  RA concentration that relieved the differentiation block: 1 µM
[2]
  RA concentration that relieved the differentiation block: 1 µM
[3]
  reduction in the number of Mac1+ cells: 20-30%
ΔCC-PML-RAR
  RA concentration that reverted transcriptional repression: up to 100 nM
